Measured values as given in patent US8193234B2, “Compounds, compositions and methods of using same for modulating uric acid levels” (Ardea Biosciences, Inc., priority 2008, dated 2012).
Where two headings read alike, the source gives them in different places.

Experiments:
hURAT1 Transporter = target: T1, hURAT1 Transporter (Homo sapiens, UniProt Q96S37); assay: Uric Acid Uptake Assay (14C-uric acid uptake in HEK293/urat1 cells); type: cell-based; conditions: 40 μM C14 uric acid, 10 minutes at room temperature
T1 construct: Full-length human URAT1 gene (SLC22A12) was subcloned from plasmid pCMV6-XL5 (Origene)
T1 sequence (Q96S37 1-553): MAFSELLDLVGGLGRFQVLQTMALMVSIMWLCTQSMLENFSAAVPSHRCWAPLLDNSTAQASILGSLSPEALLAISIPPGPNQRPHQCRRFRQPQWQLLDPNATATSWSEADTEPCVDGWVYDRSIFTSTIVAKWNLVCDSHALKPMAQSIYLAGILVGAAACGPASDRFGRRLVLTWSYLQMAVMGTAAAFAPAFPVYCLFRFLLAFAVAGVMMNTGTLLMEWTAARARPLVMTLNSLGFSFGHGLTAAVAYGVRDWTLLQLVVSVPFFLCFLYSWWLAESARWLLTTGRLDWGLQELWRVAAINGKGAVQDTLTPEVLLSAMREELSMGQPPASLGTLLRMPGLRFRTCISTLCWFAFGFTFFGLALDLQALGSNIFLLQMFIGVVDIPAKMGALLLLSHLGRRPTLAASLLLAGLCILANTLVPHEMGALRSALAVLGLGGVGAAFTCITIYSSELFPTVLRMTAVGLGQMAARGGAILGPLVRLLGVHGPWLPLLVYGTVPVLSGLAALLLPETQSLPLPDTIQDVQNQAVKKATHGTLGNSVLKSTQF
From the text: Creation of Stable Cell Lines Expressing hURAT1 Transporter: Full-length human URAT1 gene (SLC22A12) was subcloned from plasmid pCMV6-XL5 (Origene) into eukaryotic expression plasmid pCMV6/Neo (Origene) using Not I restriction sites. Gene sequencing confirmed the sequence of hURAT1 as outlined in Genbank (Accession #NM_144585.2). HEK293 human embryonic kidney cells (ATCC #CRL-1573) were propagated in EMEM tissue culture medium as described by ATCC in an atmosphere of 5% CO2 and 95% air. Transfections of HEK293 cells with the pCMV6/Neo/URAT1 construct were performed using L2000 transfection reagent (Invitrogen) as described by the manufacturer. After 24 h the transfected cells were split into 10 cm tissue culture plates and grown for 1 day after which the medium was replaced with fresh growth medium containing G418 (Gibco) at 0.5 mg/ml final concentration. Drug-resistant colonies were selected after approximately 8 days and then tested for ^14C-uric acid transport activity. The HEK293/urat1 cells are plated on Poly-D-Lysine Coated 96-well Plates at a density of 75,000 cells per well.
Cells were grown overnight (20-26 hours) at 37° C. in an incubator. Plates were allowed to come to room temperature and media was washed out with one wash of 250 μl of Wash Buffer (125 mM Na Gluconate, 10 mM Hepes ph 7.3). Compound or vehicle is added in assay buffer with C14 Uric Acid for a final concentration of 40 μM Uric Acid with a specific activity of 54 mCi/mmol. Assay Buffer is 125 mM Sodium Gluconate, 4.8 mM Potassium Gluconate, 1.2 mM Potassium phosphate, monobasic, 1.2 mM magnesium sulfate, 1.3 mM Ca Gluconate, 5.6 mM Glucose, 25 mM HEPES, pH 7.3. Plates were incubated at room temperature for 10 minutes then washed 3 times with 50 μl Wash Buffer and 3 times with 250 μl Wash Buffer. Microscint 20 Scintillation Fluid was added and plates were incubated overnight at 45° C. to equilibrate. Plates are then read on the TopCount Plate Reader and an EC50 value generated. (See Enomoto et al, Nature, 2002, 417, 447-451 and Anzai et al, J. Biol. Chem., 2004, 279, 45942-45950).
Compounds prepared as described herein, were examined according to the procedure described above and EC50 values generated. […] (N/A means data not available).

[1] = background statement, in certain instances; cited from earlier work
[2] = PO Dosing in Rats: urinary excretion profile; type: in vivo, Male Sprague-Dawley Rats; conditions: analyte = dosed compound itself in urine, PO 3 mg/kg, male rats
Method: (§1) Compounds prepared as described in examples 1, 3, 7, 8, and 9 are administered PO to Male Sprague-Dawley Rats (250 grams; 3 animals per test group). The test compounds are dissolved in aqueous sodium hydroxide solution (0.2N), brought up to volume with phosphate buffered saline to a concentration of 0.6 mg/mL, and PO administered to the animals at a concentration of 3 mg/kg (5 mL/kg). Plasma samples are removed at 0.25, 0.5, 1, 3, 6, 12 and 24 hr after initial dose and analyzed for presence of compound and possible metabolite. Urine samples are also collected and analyzed for parent compound and/or metabolite.
(§2) Note that in some instances, 2-(5-Bromo-1-(4-cyanonaphthalen-1-yl)-1H-imidazol-2-ylthio)acetic acid (eg 1) is a possible in vivo metabolite of the compounds described in examples 2-9.

[3] = PO Dosing in Rats: plasma profile; type: in vivo, Male Sprague-Dawley Rats; conditions: for Cmax / Tmax / half-life / AUC(0-t): Sprague-Dawley, rat; for Cmax / Tmax / half-life / Clast: analyte = dosed compound itself in plasma; for half-life: read-out: t½ (converted); for AUC t = 0_6, share in brackets / AUC t = 12_24, share in brackets / AUC t = _12, share in brackets: share of AUC 0_24; for AUC(0-t): male, plasma, po, 3 mg/kg
Method: as §1, §2

[4] = footnote *: plasma, not urinary, distribution, analyte = dosed compound, PO 3 mg/kg, male rats
[5] = analyte = dosed compound itself
[6] = analyte = dosed compound itself, PO 3 mg/kg, male rats, read-out: AUC t = 0_6
[7] = analyte = dosed compound itself, PO 3 mg/kg, male rats, read-out: AUC t = 0_24
[8] = analyte = dosed compound itself, PO 3 mg/kg, male rats, read-out: AUC t = 12_24
[9] = analyte = dosed compound itself, PO 3 mg/kg, male rats, read-out: AUC t = _12

Cc1cnc(SCC(=O)O)n1-c1ccc(N(C)C)c2c1CCCC2
EC50 (hURAT1 Transporter): 1000 to 30000 nM

Oc1ncnc2[nH]ncc12 [Allopurinol, allopurinol]
incidence of side effects, of all individuals treated with the drug [1]: 20%

N#Cc1ccc(-n2c(Br)cnc2SCC(=O)O)c2ccccc12 [Example 1, 2-(5-Bromo-1-(4-cyanonaphthalen-1-yl)-1H-imidazol-2-ylthio)acetic acid]
Total Urinary Excretion % of dose [2]: 4.2 % of dose
BA ([3]; analyte = dosed compound itself, PO 3 mg/kg, male rats): 30%
Plasma Distribution (%) 0-6 h [3, 4]: 85* %
Plasma Distribution (%) 6-12 h [3, 4]: 11* %
Plasma Distribution (%) 12-24 h [3, 4]: 4* %
EC50 (hURAT1 Transporter): 1 to 1000 nM

CCOC(=O)CNC(=O)CSc1ncc(Br)n1-c1ccc(C#N)c2ccccc12 [Example 2, Ethyl 2-(2-(5-bromo-1-(4-cyanonaphthalen-1-yl)-1H-imidazol-2-ylthio)acetamido)acetate]
EC50 (hURAT1 Transporter): 1 to 1000 nM

N#Cc1ccc(-n2c(Br)cnc2SCC(=O)NCC(=O)O)c2ccccc12 [Example 3, 2-(2-(5-Bromo-1-(4-cyanonaphthalen-1-yl)-1H-imidazol-2-ylthio)acetamido)acetic acid]
Total Urinary Excretion % of dose [2]: 7 % of dose
Urinary Distribution (%) 0-6 h [2]: 74%
Urinary Distribution (%) 6-12 h [2]: 20%
Urinary Distribution (%) 12-24 h [2]: 7%
Cmax ([3]; PO 3 mg/kg, male rats): 56.6 ng/mL
Tmax ([3]; PO 3 mg/kg, male rats): 0.833 h
half-life ([3]; PO 3 mg/kg, male rats): 209 min
Clast ([3]; PO 3 mg/kg, male rats): 518 pg/mL
AUC t = 0_6, share in brackets [3, 5]: (58%)
AUC t = 12_24, share in brackets [3, 5]: (10%)
AUC t = _12, share in brackets [3, 5]: (32%)
AUC(0-t) [3, 6]: 145 ng·h/mL
AUC(0-t) [3, 7]: 251 ng·h/mL
AUC(0-t) [3, 8]: 25.6 ng·h/mL
AUC(0-t) [3, 9]: 79.8 ng·h/mL
EC50 (hURAT1 Transporter): 1000 to 30000 nM

CCOC(=O)CCNC(=O)CSc1ncc(Br)n1-c1ccc(C#N)c2ccccc12 [Example 4, Ethyl 3-(2-(5-bromo-1-(4-cyanonaphthalen-1-yl)-1H-imidazol-2-ylthio)acetamido)propanoate]
EC50 (hURAT1 Transporter): 1 to 1000 nM

CCOC(=O)[C@H](C)NC(=O)CSc1ncc(Br)n1-c1ccc(C#N)c2ccccc12 [Example 5, (2S)-Ethyl 2-(2-(5-bromo-1-(4-cyanonaphthalen-1-yl)-1H-imidazol-2-ylthio)acetamido)propanoate]
EC50 (hURAT1 Transporter): 1 to 1000 nM

CCOC(=O)[C@@H](NC(=O)CSc1ncc(Br)n1-c1ccc(C#N)c2ccccc12)C(C)C [Example 6, (2S)-Ethyl 2-(2-(5-bromo-1-(4-cyanonaphthalen-1-yl)-1H-imidazol-2-ylthio)acetamido)-3-methylbutanoate]
EC50 (hURAT1 Transporter): 1 to 1000 nM

N#Cc1ccc(-n2c(Br)cnc2SCC(=O)NCCC(=O)O)c2ccccc12 [Example 7, 3-(2-(5-bromo-1-(4-cyanonaphthalen-1-yl)-1H-imidazol-2-ylthio)acetamido)propanoic acid]
Total Urinary Excretion % of dose [2]: 26 % of dose
Urinary Distribution (%) 0-6 h [2]: 63%
Urinary Distribution (%) 6-12 h [2]: 30%
Urinary Distribution (%) 12-24 h [2]: 7%
EC50 (hURAT1 Transporter): 1000 to 30000 nM

C[C@H](NC(=O)CSc1ncc(Br)n1-c1ccc(C#N)c2ccccc12)C(=O)O [Example 8, (2S)-2-(2-(5-bromo-1-(4-cyanonaphthalen-1-yl)-1H-imidazol-2-ylthio)acetamido)propanoic acid]
Total Urinary Excretion % of dose [2]: 8 % of dose
Urinary Distribution (%) 0-6 h [2]: 63%
Urinary Distribution (%) 6-12 h [2]: 32%
Urinary Distribution (%) 12-24 h [2]: 5%
Cmax ([3]; PO 3 mg/kg, male rats): 110 ng/mL
Tmax ([3]; PO 3 mg/kg, male rats): 1 h
half-life ([3]; PO 3 mg/kg, male rats): 179 min
Clast ([3]; PO 3 mg/kg, male rats): 371 pg/mL
AUC t = 0_6, share in brackets [3, 5]: (69%)
AUC t = 12_24, share in brackets [3, 5]: (13%)
AUC t = _12, share in brackets [3, 5]: (17%)
AUC(0-t) [3, 6]: 339 ng·h/mL
AUC(0-t) [3, 7]: 488 ng·h/mL
AUC(0-t) [3, 8]: 65.2 ng·h/mL
AUC(0-t) [3, 9]: 83.9 ng·h/mL
EC50 (hURAT1 Transporter): > 30000 nM

CC(C)[C@H](NC(=O)CSc1ncc(Br)n1-c1ccc(C#N)c2ccccc12)C(=O)O [Example 9, (2S)-2-(2-(5-bromo-1-(4-cyanonaphthalen-1-yl)-1H-imidazol-2-ylthio)acetamido)-3-methylbutanoic acid]
Total Urinary Excretion % of dose [2]: 1 % of dose
Urinary Distribution (%) 0-6 h [2]: 66%
Urinary Distribution (%) 6-12 h [2]: 26%
Urinary Distribution (%) 12-24 h [2]: 9%
Cmax ([3]; PO 3 mg/kg, male rats): 25.8 ng/mL
Tmax ([3]; PO 3 mg/kg, male rats): 2.67 h
half-life ([3]; PO 3 mg/kg, male rats): 161 min
Clast ([3]; PO 3 mg/kg, male rats): 4690 pg/mL
AUC t = 0_6, share in brackets [3, 5]: (49%)
AUC t = 12_24, share in brackets [3, 5]: (15%)
AUC t = _12, share in brackets [3, 5]: (36%)
AUC(0-t) [3, 6]: 91.5 ng·h/mL
AUC(0-t) [3, 7]: 187 ng·h/mL
AUC(0-t) [3, 8]: 28.2 ng·h/mL
AUC(0-t) [3, 9]: 67.7 ng·h/mL
EC50 (hURAT1 Transporter): 1000 to 30000 nM

N#Cc1ccc(-n2c(Br)cnc2SC(F)(F)C(=O)O)c2ccccc12 [Example 10, 2-(5-Bromo-1-(4-cyanonaphthalen-1-yl)-1H-imidazol-2-ylthio)-2,2-difluoroacetic acid]
EC50 (hURAT1 Transporter): 1 to 1000 nM

CCCN(CCC)S(=O)(=O)c1ccc(C(=O)O)cc1 [probenecid]
individuals treated who fail to achieve reduction of serum uric acid levels<6 mg/dL [1]: 25-50%
individuals who develop intolerance [1]: one-third
